Measurements published in ChEMBL document CHEMBL4837226, “Discovery of pyrrole derivatives for the treatment of glioblastoma and chronic myeloid leukemia” (Eur J Med Chem, 2021).
Active and inactive are the calls of the source. No cut-off for these calls is given here.

Experiments:
[1] = molecular target: T1, DNA topoisomerase 1 (Homo sapiens) (UniProt P11387); assay: Inhibition of human recombinant topoisomerase I using supercoiled pHOT1 plasmid DNA as substrate at 10 to 100 uM measured after 1 hr by agarose gel electrophoresis analysis; details: dose 10-100 µM
T1 sequence (whole entry): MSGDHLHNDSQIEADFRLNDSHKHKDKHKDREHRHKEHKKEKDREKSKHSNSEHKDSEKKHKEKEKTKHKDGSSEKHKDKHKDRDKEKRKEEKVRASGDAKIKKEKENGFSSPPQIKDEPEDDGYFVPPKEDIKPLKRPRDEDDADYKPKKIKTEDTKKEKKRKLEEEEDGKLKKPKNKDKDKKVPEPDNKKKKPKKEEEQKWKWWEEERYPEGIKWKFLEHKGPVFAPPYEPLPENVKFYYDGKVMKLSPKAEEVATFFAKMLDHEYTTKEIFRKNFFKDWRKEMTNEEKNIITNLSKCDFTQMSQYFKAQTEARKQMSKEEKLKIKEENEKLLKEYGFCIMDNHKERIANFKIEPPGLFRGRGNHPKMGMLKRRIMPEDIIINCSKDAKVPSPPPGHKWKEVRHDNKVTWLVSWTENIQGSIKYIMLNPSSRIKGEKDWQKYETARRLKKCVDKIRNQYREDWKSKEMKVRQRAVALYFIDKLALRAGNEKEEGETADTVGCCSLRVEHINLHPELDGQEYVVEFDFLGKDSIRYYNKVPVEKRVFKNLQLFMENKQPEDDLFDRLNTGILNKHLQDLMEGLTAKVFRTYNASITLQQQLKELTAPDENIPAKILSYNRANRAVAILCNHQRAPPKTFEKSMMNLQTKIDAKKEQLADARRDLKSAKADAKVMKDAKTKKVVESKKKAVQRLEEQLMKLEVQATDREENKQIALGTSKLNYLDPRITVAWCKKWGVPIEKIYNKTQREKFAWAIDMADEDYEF

U-87 MG [2] = assay: Antitumor activity against human U-87MG cells xenografted in BALB/c nu/nu mouse assessed as reduction in GFAP expression at 25 mg/kg, ip administered every 2 days for 35 days by DAPI staining based immunofluorescence analysis; format: functional, organism-based; details: U-87MG ATCC, time 35.0 day
[3] = molecular target: Bcr/Abl fusion protein (Homo sapiens) (UniProt P00519+P11274); assay: Inhibition of Bcr-Abl tyrosine phosphorylation in human KBM5 cells expressing T315I mutant at 1 to 10 nM in the presence of ponatinib measured after 24 hrs by western blot analysis; format: cell-based; details: dose 1-10 nM
KU812 cell line = assay: Cytotoxicity against Bcr-Abl expressing human KU812 cells assessed as cell growth inhibition measured after 48 hrs by MTT assay; format: functional, cell-based; details: KU812, 48 h
U-87 MG [4] = assay: Antitumor activity against human U-87MG cells xenografted in BALB/c nu/nu mouse assessed as reduction in Ki67 expression at 25 mg/kg, ip administered every 2 days for 35 days by DAPI staining based immunofluorescence analysis; format: functional, organism-based; details: U-87MG ATCC, time 35.0 day
KBM5 [5] = assay: Potentiation of ponatinib-induced apoptosis human KBM5 cells expressing T315I mutant assessed as increase in apoptotic cells at 5 nM measured after 48 hrs by annexin V staining based flow cytometry analysis (reference value: 35 %); format: functional
U-87 MG [6] = assay: Antitumor activity against human U-87MG cells xenografted in BALB/c nu/nu mouse assessed as reduction in glioma tumors at 25 mg/kg, ip administered every 2 days for 35 days by hematoxylin and eosin staining based assay; format: functional, organism-based; details: U-87MG ATCC, time 35.0 day
KBM5 [7] = assay: Cytotoxicity against Imatinib mesylate sensitive wild-type human KBM5 cells assessed as cell growth inhibition measured after 48 hrs by MTT assay; format: functional, cell-based; details: KBM5, 48 h
U-87 MG [8] = assay: Cytotoxicity against human U-87MG cells assessed as cell growth inhibition by measuring maximum efficacy measured after 48 hrs by MTS colorimetric assay relative to control; format: functional, U-87MG ATCC
KBM5 [9] = assay: Induction of apoptosis in human KBM5 cells expressing T315I mutant assessed as increase in Bcr-Abl expression at 1 to 10 uM measured after 24 hrs by western blot analysis; format: functional, cell-based; details: dose 1-10 µM
[10] = molecular target: DNA topoisomerase II (Homo sapiens) (UniProt P11388+Q02880); assay: Inhibition of human topoisomerase II assessed as reduction in decantenation using kinetoplast DNA as a substrate at 100 uM measured after 1 hr by ethidium bromide staining based agarose gel electrophoresis analysis relative to control; format: protein assay
U-87 MG [11] = assay: Antitumor activity against human U-87MG cells xenografted in BALB/c nu/nu mouse assessed as increase in activated caspase-3 expression at 25 mg/kg, ip administered every 2 days for 35 days by DAPI staining based immunofluorescence analysis; format: functional, organism-based; details: U-87MG ATCC, time 35.0 day
U-87 MG [12] = assay: Antitumor activity against human U-87MG cells xenografted in BALB/c nu/nu mouse assessed as reduction in tumor weight at 25 mg/kg, ip administered every 2 days for 35 days; format: functional, organism-based; details: U-87MG ATCC, time 35.0 day
KBM5 [13] = assay: Cytotoxicity against imatinib mesylate resistant wild-type human KBM5 cells expressing T315I mutant assessed as cell growth inhibition measured after 48 hrs by MTT assay; format: functional, cell-based; details: KBM5, 48 h
KBM5 [14] = assay: Potentiation of ponatinib-induced mitochondrial membrane depolarization in human KBM5 cells expressing T315I mutant at 5 nM measured upto 48 hrs by JC-1 staining based flow cytometry analysis; format: functional, cell-based; details: time hrs <=48
Tubulin (Homo sapiens) [15] = molecular target: T2, Tubulin (Homo sapiens) (UniProt P68371+Q9H4B7+P0DPH7+P68366+Q13509+Q71U36+P04350+Q3ZCM7+P07437+P68363+Q9BQE3+Q6PEY2+Q13885+Q9BVA1+Q9BUF5); assay: Inhibition of [3H]Colchicine binding to tubulin (unknown origin) at 5 uM measured after 10 mins by DEAE-Cellulose filter method relative to control; format: protein-complex assay
[16] = Cytotoxicity against human U343MG cells assessed as cell growth inhibition by measuring maximum efficacy measured after 72 hrs by MTS colorimetric assay relative to control; format: functional; details: U-343MG
SW-620 = assay: Cytotoxicity against human SW-620 cells assessed as cell growth inhibition measured after 48 hrs by XTT dye based assay; format: functional; details: SW-620, 48 h
Tubulin (Homo sapiens) [17] = molecular target: T2, Tubulin (Homo sapiens); assay: Inhibition of [3H]Colchicine binding to tubulin (unknown origin) at 1 uM measured after 10 mins by DEAE-Cellulose filter method relative to control; format: protein-complex assay
U-87 MG [18] = assay: Cytotoxicity against human U-87MG cells assessed as cell growth inhibition measured after 48 hrs by MTS colorimetric assay; format: functional, cell-based, U-87MG ATCC
[19] = molecular target: T1, DNA topoisomerase 1 (Homo sapiens); assay: Inhibition of human recombinant topoisomerase I assessed as DNA cleavage using supercoiled pHOT1 plasmid DNA as substrate at 100 uM measured after 1 hr by agarose gel electrophoresis analysis
KBM5 [20] = assay: Potentiation of ponatinib-induced mitochondrial membrane depolarization in human KBM5 cells expressing T315I mutant at 5 nM in the presence of ponatinib measured upto 48 hrs by JC-1 staining based flow cytometry analysis (Rvb= 32.7 %); format: functional; details: time hrs <=48
U-87 MG [21] = assay: Antitumor activity against human U-87MG cells xenografted in BALB/c nu/nu mouse assessed as reduction in Bcl2 protein expression at 25 mg/kg, ip administered every 2 days for 35 days by DAPI staining based immunofluorescence analysis; format: functional, organism-based; details: U-87MG ATCC, time 35.0 day
KBM5 [22] = assay: Potentiation of ponatinib-induced apoptosis human KBM5 cells assessed as increase in apoptotic cells at 5 nM measured after 48 hrs by annexin V staining based flow cytometry analysis; format: functional, cell-based

Bcr/Abl fusion protein (Homo sapiens), sequence (P00519 whole entry, looked up, the tested form may be a part): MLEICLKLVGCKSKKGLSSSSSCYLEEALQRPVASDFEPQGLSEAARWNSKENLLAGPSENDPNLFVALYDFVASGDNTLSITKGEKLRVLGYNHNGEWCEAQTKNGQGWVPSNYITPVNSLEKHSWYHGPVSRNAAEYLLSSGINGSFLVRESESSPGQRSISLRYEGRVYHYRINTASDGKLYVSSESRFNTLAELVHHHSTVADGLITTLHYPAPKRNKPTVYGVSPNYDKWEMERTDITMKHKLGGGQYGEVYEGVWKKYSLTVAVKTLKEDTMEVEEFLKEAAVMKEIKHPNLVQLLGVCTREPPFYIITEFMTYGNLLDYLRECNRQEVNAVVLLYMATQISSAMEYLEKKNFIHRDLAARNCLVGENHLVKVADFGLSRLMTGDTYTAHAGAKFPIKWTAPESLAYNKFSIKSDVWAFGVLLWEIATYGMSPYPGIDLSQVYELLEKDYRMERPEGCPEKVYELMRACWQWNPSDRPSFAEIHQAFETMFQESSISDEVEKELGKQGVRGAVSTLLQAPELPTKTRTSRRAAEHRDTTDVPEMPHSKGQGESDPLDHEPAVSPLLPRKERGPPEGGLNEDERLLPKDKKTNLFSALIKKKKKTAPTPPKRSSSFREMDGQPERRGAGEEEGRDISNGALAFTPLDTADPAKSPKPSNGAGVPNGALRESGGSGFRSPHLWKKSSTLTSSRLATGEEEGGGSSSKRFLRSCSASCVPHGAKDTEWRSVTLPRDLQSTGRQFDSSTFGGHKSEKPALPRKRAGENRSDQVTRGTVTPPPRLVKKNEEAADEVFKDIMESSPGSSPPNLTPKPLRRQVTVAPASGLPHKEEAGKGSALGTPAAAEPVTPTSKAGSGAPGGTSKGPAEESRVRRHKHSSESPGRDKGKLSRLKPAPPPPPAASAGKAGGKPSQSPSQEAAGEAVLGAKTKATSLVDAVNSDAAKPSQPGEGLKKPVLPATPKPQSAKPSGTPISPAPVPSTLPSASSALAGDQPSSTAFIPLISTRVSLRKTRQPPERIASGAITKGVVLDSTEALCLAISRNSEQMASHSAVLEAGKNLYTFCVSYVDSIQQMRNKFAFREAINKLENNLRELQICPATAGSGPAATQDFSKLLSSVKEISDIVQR
Bcr/Abl fusion protein (Homo sapiens), sequence (P11274 whole entry, looked up, the tested form may be a part): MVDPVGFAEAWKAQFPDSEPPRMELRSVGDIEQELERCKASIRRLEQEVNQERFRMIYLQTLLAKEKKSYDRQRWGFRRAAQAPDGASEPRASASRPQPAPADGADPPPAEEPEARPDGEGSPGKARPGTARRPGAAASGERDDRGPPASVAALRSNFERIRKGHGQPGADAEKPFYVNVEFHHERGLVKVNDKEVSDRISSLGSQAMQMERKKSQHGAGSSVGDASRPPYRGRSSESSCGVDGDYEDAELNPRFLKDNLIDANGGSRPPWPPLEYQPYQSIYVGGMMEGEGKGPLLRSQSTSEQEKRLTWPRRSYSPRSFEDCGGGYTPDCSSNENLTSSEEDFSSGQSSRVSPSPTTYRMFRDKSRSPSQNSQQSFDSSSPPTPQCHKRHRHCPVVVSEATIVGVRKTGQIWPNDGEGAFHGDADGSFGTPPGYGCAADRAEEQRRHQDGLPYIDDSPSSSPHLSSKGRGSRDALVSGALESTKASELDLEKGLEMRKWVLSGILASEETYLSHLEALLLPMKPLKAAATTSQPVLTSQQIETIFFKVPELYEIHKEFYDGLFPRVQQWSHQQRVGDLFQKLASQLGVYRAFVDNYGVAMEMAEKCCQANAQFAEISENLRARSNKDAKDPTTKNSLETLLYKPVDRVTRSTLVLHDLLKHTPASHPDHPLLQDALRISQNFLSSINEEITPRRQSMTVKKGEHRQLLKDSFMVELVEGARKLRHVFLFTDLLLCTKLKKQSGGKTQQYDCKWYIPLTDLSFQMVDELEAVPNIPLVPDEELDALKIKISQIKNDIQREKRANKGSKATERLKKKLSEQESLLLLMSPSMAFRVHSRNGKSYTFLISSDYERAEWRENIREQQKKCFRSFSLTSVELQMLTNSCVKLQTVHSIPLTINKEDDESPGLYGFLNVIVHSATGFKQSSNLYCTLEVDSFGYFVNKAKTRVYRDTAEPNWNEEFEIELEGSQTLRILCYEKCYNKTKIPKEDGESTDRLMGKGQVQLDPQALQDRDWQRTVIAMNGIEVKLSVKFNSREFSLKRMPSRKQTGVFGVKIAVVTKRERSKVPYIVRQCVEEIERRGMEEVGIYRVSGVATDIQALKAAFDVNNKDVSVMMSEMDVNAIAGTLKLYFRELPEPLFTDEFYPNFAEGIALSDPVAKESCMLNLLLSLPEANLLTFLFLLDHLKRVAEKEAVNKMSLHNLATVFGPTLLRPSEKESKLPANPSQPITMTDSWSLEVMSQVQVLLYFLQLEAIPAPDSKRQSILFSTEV

inhibition [1]: inactive | inhibition [3]: Active | inhibition [10]: 100% | inhibition (Tubulin (Homo sapiens) [15]): 90% | inhibition (Tubulin (Homo sapiens) [17]): 71% | inhibition [19]: Active
Structure (SMILES): COc1cc(C(=O)c2cn(-c3ccc(C)cc3)cc2-c2ccsc2)cc(OC)c1OC
Activity (U-87 MG [2]): Active | IC50 (KU812 cell line): 9.5 nM | Activity (U-87 MG [4]): Active | Activity (KBM5 [5]): 70% | Activity (U-87 MG [6]): Active | IC50 (KBM5 [7]): 8.2 nM | Emax (U-87 MG [8]): 55.6% | Activity (KBM5 [9]): Active | Activity (U-87 MG [11]): Active | Activity (U-87 MG [12]): Active | IC50 (KBM5 [13]): 8.8 nM | Activity (KBM5 [14]): Active | Emax [16]: 48.5% | IC50 (SW-620): 111 nM | IC50 (U-87 MG [18]): 19.4 nM | Activity (KBM5 [20]): 56.7% | Activity (U-87 MG [21]): Active | Activity (KBM5 [22]): Active
